Reference: ChEMBL document CHEMBL1141989, “Amino acid conjugates as kappa opioid receptor agonists” (Bioorg Med Chem Lett, 2005)
“And” between values parts separate entries of the source, which are not always exact repeats. Identical values can stand only once.

Columns and labels:
[1] = target: T1, Kappa-type opioid receptor (Homo sapiens, UniProt P41145); assay: In vitro effective concentration towards human kappa opioid receptor was determined using [35S]-GTP-gamma S as radioligand; Not determined; assay type: functional
[2] = target: T1, Kappa-type opioid receptor; assay: In vitro binding affinity for human kappa opioid receptor was determined by using [3H]diprenorphine as radioligand
[3] = target: Opioid receptors; mu & kappa (Homo sapiens) (UniProt P41145+P35372); assay: Selectivity of binding affinity of human kappa opioid receptor over human mu opioid receptor; assay type: protein assay
Sequence of Opioid receptors; mu & kappa (Homo sapiens) (P35372 whole entry, looked up): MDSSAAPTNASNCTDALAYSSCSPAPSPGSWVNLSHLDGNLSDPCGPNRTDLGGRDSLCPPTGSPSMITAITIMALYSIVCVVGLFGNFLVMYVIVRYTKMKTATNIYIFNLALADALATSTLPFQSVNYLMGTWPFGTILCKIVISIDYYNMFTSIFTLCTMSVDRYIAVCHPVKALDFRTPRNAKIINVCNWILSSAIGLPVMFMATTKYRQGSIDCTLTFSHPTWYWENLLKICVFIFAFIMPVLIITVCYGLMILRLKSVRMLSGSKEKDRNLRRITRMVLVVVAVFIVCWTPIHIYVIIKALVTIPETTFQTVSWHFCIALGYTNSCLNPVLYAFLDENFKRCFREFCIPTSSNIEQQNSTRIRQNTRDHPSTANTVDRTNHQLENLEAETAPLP
Sequence of Opioid receptors; mu & kappa (Homo sapiens) (P41145 whole entry, looked up): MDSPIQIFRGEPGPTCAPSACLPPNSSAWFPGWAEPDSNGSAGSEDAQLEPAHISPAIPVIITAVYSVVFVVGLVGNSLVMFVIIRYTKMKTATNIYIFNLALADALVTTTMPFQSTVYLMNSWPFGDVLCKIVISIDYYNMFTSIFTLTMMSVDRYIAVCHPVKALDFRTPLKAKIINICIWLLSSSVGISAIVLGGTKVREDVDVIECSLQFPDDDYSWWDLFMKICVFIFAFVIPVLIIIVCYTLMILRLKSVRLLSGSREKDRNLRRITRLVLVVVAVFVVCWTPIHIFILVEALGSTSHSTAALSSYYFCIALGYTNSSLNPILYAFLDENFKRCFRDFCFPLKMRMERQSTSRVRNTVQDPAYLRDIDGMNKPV

T1 sequence (P41145 whole entry): as the sequence (P41145 whole entry, looked up) above

Structure (SMILES) | EC50 [1] [nM] | Ki [2] [nM] | Selectivity [3]
CN(C(=O)CNC(=O)c1ccccc1)[C@H](CN1CCCC1)c1ccccc1 | 3.85 | 6.7 | 61 and 50
CN(C(=O)CNC(=O)Cc1ccccc1)[C@H](CN1CCCC1)c1ccccc1 | – | 16.3 | > 100 and 49
CN(C(=O)CNC(=O)OCc1ccccc1)[C@H](CN1CCCC1)c1ccccc1 | – | 84 | –
CN(C(=O)CNC(=O)c1ccc(Cl)c(Cl)c1)[C@H](CN1CC[C@@H](O)C1)c1ccccc1 | 0.76 | 0.83 | –
CN(CC(=O)N(C)[C@H](CN1CC[C@@H](O)C1)c1ccccc1)C(=O)c1ccc(Cl)c(Cl)c1 | 41.4 | 20 | –
COC(=O)N[C@H](C(=O)N(C)[C@H](CN1CCCC1)c1ccccc1)c1ccccc1 | – | 178 | > 100
CN(C(=O)C(NC=O)c1ccccc1)[C@H](CN1CCCC1)c1ccccc1 (mixture of isomers) | – | 258 | 146 and > 100
CN(C(=O)[C@H](Cc1ccccc1)NC(=O)OCc1ccccc1)[C@H](CN1CCCC1)c1ccccc1 | – | 150 | 13 and 5
CN(C(=O)[C@@H](NC(=O)c1ccccc1)c1ccccc1)[C@H](CN1CCCC1)c1ccccc1 | – | 99 | –
CN(C(=O)CNC(=O)c1ccc(Cl)c(Cl)c1)[C@H](CN1CCCC1)c1ccccc1 | 2.25 | 3.6 | 34 and 24
CN(C(=O)[C@@H](NC(=O)OCc1ccccc1)c1ccccc1)[C@H](CN1CCCC1)c1ccccc1 | – | 138 | 22 and 27
CN(C(=O)[C@H](NC(=O)OCc1ccccc1)c1ccccc1)[C@H](CN1CCCC1)c1ccccc1 | – | 856 | –
CN(C(=O)CNC(=O)c1ccc2c(c1)no[n+]2[O-])[C@H](CN1CCCC1)c1ccccc1 | 4.37 | 4.6 | –
COc1ccccc1C(=O)NCC(=O)N(C)[C@H](CN1CC[C@@H](O)C1)c1ccccc1 | 1.98 | 2 | –
COc1ccc(C(=O)NCC(=O)N(C)[C@H](CN2CC[C@@H](O)C2)c2ccccc2)cc1 | – | 48 | 39 and > 100
